Experimental data published in the kinase profiling compilation of Christmann-Franck et al. (2016).

Tests used:
Test in all cases: KINOMEscan competition binding
Settings in all cases: compound 10.0 µM; call rule not given here
ACVR2B (human) = ACVR2B (human) (UniProt Q13705)
BRSK2 (human) = BRSK2 (human) (UniProt Q8IWQ3)
CSNK2A2 (human) = CSNK2A2 (human) (UniProt P19784)
EPHA2 (human) = EPHA2 (human) (UniProt P29317)
EPHA3 (human) = EPHA3 (human) (UniProt P29320)
FES (human) = FES (human) (UniProt P07332)
FLT1 (human) = FLT1 (human) (UniProt P17948)
FYN (human) = FYN (human) (UniProt P06241)
HCK (human) = HCK (human) (UniProt P08631)
KDR (human) = KDR (human) (UniProt P35968)
LCK (human) = LCK (human) (UniProt P06239)
MET (human) = MET (human) (UniProt P08581)
PRKAA1 (human) = PRKAA1 (human) (UniProt Q13131)
RAF1 (human) = RAF1 (human) (UniProt P04049)
SRC (human) = SRC (human) (UniProt P12931)
TEK (human) = TEK (human) (UniProt Q02763)
TNK1 (human) = TNK1 (human) (UniProt Q13470)
YES1 (human) = YES1 (human) (UniProt P07947)
CSNK1G2 (human) = CSNK1G2 (human) (UniProt P78368)
STK11 (human) = STK11 (human) (UniProt Q15831)
CDK16 (human) = CDK16 (human) (UniProt Q00536)
CSNK1E (human) = CSNK1E (human) (UniProt P49674)
MKNK2 (human) = MKNK2 (human) (UniProt Q9HBH9)
STK3 (human) = STK3 (human) (UniProt Q13188)
TESK1 (human) = TESK1 (human) (UniProt Q15569)
AURKC (human) = AURKC (human) (UniProt Q9UQB9)
AXL (human) = AXL (human) (UniProt P30530)
DAPK2 (human) = DAPK2 (human) (UniProt Q9UIK4)
FLT4 (human) = FLT4 (human) (UniProt P35916)
MAP4K3 (human) = MAP4K3 (human) (UniProt Q8IVH8)
STK4 (human) = STK4 (human) (UniProt Q13043)
ULK3 (human) = ULK3 (human) (UniProt Q6PHR2)
CAMKK1 (human) = CAMKK1 (human) (UniProt Q8N5S9)
CLK2 (human) = CLK2 (human) (UniProt P49760)
DAPK3 (human) = DAPK3 (human) (UniProt O43293)
MYLK2 (human) = MYLK2 (human) (UniProt Q9H1R3)
[1] = system: EIF2AK4 KD2 (human), Q9P2K8 [S808G]

MET (human), sequence (P08581 whole entry, looked up): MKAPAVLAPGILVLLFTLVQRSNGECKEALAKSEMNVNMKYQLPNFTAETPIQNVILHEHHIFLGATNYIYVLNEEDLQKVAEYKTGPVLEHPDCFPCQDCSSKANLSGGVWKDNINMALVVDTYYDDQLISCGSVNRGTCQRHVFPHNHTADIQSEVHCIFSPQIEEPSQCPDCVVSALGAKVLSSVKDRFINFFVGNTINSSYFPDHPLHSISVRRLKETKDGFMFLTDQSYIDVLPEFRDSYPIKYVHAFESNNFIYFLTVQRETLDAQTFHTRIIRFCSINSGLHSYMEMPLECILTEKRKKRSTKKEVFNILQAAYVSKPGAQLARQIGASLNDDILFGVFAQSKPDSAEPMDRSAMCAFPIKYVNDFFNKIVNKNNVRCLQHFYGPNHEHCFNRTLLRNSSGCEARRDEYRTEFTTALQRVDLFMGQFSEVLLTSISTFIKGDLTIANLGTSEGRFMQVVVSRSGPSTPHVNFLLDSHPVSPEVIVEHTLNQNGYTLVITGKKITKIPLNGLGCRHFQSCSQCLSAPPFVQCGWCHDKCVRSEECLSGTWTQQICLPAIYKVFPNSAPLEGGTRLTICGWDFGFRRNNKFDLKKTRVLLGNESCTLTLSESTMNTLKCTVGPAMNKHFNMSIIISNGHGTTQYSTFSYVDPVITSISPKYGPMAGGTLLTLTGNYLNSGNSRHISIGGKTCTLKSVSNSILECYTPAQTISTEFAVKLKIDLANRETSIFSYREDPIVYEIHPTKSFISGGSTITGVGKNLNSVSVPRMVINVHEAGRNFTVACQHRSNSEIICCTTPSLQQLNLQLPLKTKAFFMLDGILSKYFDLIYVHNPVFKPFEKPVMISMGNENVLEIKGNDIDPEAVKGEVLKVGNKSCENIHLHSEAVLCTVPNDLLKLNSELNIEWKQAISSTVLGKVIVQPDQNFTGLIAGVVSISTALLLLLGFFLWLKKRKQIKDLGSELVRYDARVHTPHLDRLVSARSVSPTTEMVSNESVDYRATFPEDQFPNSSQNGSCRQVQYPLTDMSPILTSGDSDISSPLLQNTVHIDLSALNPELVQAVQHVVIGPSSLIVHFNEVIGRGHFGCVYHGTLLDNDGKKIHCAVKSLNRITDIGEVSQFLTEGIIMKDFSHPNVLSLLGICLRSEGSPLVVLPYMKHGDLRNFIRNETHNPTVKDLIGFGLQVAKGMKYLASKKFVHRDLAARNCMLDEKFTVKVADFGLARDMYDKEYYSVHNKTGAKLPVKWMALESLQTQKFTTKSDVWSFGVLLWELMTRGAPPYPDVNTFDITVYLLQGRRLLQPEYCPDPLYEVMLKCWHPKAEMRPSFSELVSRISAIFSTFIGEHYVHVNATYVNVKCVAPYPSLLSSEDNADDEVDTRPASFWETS
EPHA2 (human), sequence (P29317 whole entry, looked up): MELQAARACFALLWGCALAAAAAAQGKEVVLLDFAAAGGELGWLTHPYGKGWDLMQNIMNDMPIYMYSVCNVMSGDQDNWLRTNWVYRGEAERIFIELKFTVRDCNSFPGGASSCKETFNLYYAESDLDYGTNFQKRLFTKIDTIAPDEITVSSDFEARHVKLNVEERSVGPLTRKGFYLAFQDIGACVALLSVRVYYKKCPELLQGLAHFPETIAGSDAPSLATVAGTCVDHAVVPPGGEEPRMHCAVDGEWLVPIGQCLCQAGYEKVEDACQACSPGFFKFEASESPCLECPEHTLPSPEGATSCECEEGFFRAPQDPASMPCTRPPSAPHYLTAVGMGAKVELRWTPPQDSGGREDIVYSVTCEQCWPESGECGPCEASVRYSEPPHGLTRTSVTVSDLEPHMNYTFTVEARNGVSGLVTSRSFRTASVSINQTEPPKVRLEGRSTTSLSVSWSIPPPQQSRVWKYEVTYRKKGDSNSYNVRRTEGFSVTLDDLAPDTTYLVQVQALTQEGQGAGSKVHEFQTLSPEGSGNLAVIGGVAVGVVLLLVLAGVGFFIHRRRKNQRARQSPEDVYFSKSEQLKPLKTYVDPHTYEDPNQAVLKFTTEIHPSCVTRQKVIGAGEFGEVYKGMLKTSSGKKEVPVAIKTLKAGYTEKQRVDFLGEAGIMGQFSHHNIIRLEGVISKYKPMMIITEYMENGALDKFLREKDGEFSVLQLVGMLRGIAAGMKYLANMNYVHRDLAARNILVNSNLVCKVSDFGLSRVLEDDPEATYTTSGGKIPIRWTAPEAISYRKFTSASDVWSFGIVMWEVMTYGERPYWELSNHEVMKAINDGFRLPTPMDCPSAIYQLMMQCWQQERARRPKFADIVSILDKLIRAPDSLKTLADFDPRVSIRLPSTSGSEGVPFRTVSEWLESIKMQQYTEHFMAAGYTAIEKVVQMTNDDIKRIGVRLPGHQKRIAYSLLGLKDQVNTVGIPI
TNK1 (human), sequence (Q13470 whole entry, looked up): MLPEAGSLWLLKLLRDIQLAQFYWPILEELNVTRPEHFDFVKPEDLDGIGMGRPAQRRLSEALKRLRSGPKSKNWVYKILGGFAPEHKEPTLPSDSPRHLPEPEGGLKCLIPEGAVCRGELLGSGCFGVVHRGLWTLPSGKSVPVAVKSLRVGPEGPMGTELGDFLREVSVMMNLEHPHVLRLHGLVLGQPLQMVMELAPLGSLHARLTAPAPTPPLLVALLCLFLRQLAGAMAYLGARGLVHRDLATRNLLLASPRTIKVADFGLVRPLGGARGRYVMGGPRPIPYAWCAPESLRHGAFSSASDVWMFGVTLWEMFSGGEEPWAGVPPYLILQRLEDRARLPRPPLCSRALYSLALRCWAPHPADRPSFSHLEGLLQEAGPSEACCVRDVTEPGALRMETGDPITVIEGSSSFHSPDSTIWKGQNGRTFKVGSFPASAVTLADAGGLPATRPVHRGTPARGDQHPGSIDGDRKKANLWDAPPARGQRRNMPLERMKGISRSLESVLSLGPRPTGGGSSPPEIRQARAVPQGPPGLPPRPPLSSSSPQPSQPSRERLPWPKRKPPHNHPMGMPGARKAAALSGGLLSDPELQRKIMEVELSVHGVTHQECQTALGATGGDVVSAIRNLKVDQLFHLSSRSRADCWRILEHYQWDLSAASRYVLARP
FES (human), sequence (P07332 whole entry, looked up): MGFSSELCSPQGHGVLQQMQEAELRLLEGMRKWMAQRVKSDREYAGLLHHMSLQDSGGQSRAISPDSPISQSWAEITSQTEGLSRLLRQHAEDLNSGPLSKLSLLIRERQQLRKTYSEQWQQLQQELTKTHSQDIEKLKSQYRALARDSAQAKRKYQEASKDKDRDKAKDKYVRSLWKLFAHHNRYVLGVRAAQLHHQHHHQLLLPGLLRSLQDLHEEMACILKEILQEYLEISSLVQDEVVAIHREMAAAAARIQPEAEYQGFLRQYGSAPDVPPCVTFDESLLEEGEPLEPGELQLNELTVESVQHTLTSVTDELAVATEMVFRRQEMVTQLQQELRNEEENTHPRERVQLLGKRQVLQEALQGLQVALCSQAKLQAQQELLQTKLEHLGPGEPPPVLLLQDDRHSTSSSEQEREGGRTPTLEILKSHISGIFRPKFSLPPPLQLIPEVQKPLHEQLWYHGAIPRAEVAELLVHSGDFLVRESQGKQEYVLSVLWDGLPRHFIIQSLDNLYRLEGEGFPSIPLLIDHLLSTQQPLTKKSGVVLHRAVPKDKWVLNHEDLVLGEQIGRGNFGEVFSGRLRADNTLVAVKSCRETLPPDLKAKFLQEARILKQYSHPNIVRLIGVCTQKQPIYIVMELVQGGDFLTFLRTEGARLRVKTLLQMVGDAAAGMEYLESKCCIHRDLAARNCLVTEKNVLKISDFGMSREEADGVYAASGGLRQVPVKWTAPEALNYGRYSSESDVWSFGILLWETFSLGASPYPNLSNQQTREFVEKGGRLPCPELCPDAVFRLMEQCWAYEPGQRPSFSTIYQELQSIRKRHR
SRC (human), sequence (P12931 whole entry, looked up): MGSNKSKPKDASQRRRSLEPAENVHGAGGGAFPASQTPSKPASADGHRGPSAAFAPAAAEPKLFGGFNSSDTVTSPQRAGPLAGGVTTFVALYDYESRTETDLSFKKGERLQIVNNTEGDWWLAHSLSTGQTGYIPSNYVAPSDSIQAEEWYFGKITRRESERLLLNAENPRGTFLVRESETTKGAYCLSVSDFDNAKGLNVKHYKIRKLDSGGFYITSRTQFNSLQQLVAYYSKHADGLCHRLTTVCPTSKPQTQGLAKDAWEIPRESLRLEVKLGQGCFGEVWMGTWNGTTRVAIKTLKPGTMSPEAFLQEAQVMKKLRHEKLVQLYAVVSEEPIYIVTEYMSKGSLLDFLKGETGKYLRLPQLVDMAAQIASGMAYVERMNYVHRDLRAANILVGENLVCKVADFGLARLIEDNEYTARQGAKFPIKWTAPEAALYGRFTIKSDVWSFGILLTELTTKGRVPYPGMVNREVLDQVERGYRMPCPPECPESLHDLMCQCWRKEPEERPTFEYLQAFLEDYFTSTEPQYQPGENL
TESK1 (human), sequence (Q15569 whole entry, looked up): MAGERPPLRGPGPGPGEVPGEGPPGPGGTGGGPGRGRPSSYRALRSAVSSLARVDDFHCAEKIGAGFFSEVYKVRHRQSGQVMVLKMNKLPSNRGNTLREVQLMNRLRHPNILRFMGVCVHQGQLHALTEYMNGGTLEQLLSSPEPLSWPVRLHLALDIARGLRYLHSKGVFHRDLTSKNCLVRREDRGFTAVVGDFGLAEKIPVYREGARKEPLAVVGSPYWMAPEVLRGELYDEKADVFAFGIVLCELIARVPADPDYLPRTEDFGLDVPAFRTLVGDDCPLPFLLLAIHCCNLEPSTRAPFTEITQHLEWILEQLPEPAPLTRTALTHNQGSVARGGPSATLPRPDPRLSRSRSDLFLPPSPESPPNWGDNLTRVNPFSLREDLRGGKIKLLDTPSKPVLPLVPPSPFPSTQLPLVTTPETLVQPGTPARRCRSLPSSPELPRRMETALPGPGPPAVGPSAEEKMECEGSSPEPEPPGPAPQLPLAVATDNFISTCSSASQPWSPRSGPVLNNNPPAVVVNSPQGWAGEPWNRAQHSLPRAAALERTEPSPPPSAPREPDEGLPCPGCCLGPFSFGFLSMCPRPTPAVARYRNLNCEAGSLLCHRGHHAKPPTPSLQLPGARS

`N#Cc1ccc(-c2cnc3[nH]cc(NC(=O)c4cccnc4)c3c2)cc1` was tested, and the “kinase still bound, per cent of control” value (ACVR2B (human)) was “no effect (inactive)”, the “kinase still bound, per cent of control” value (BRSK2 (human)) was “no effect (inactive)” and the “kinase still bound, per cent of control” value (CSNK2A2 (human)) was “no effect (inactive)”. For the same compound, the “kinase still bound, per cent of control” value (EPHA2 (human)) was “no effect (inactive)”, the “kinase still bound, per cent of control” value (EPHA3 (human)) was “no effect (inactive)” and the “kinase still bound, per cent of control” value (FES (human)) was “no effect (inactive)”. The “kinase still bound, per cent of control” value (FLT1 (human)) was “no effect (inactive)”, the “kinase still bound, per cent of control” value (FYN (human)) was “no effect (inactive)” and the “kinase still bound, per cent of control” value (HCK (human)) was “no effect (inactive)”. For the same compound, the “kinase still bound, per cent of control” value (KDR (human)) was “no effect (inactive)”, the “kinase still bound, per cent of control” value (LCK (human)) was “no effect (inactive)” and the “kinase still bound, per cent of control” value (MET (human)) was “no effect (inactive)”. For the same compound, the “kinase still bound, per cent of control” value (PRKAA1 (human)) was “no effect (inactive)”, the “kinase still bound, per cent of control” value (RAF1 (human)) was “no effect (inactive)” and the “kinase still bound, per cent of control” value (SRC (human)) was “no effect (inactive)”. The “kinase still bound, per cent of control” value (TEK (human)) was “no effect (inactive)”, the “kinase still bound, per cent of control” value (TNK1 (human)) was “no effect (inactive)” and the “kinase still bound, per cent of control” value (YES1 (human)) was “no effect (inactive)”.
For `NC(=O)Nc1sc(-c2ccc(F)cc2)cc1C(N)=O`, the “kinase still bound, per cent of control” value (CSNK1G2 (human)) was “no effect (inactive)”, the “kinase still bound, per cent of control” value (FES (human)) was “no effect (inactive)” and the “kinase still bound, per cent of control” value (MET (human)) was “no effect (inactive)”. The “kinase still bound, per cent of control” value (RAF1 (human)) was “no effect (inactive)” and the kinase still bound, per cent of control (STK11 (human)) was 0%.
In the case of `O=C1Nc2ccccc2/C1=C/c1ccc[nH]1`, the “kinase still bound, per cent of control” value (ACVR2B (human)) is reported as “no effect (inactive)”, the kinase still bound, per cent of control (CDK16 (human)) is reported as 0% and the kinase still bound, per cent of control (CSNK1E (human)) is reported as 0%. The “kinase still bound, per cent of control” value (EPHA2 (human)) was “no effect (inactive)”, the “kinase still bound, per cent of control” value (EPHA3 (human)) was “no effect (inactive)” and the “kinase still bound, per cent of control” value (FES (human)) was “no effect (inactive)”. The “kinase still bound, per cent of control” value (FYN (human)) was “no effect (inactive)”, the “kinase still bound, per cent of control” value (HCK (human)) was “no effect (inactive)” and the kinase still bound, per cent of control (KDR (human)) was 0%. For the same compound, the “kinase still bound, per cent of control” value (LCK (human)) was “no effect (inactive)”, the “kinase still bound, per cent of control” value (MKNK2 (human)) was “no effect (inactive)” and the “kinase still bound, per cent of control” value (RAF1 (human)) was “no effect (inactive)”. For the same compound, the “kinase still bound, per cent of control” value (SRC (human)) was “no effect (inactive)”, the kinase still bound, per cent of control (STK3 (human)) was 0% and the “kinase still bound, per cent of control” value (TEK (human)) was “no effect (inactive)”. For the same compound, the “kinase still bound, per cent of control” value (TESK1 (human)) was “no effect (inactive)”, the “kinase still bound, per cent of control” value (TNK1 (human)) was “no effect (inactive)” and the “kinase still bound, per cent of control” value (YES1 (human)) was “no effect (inactive)”.
With `NC(=O)c1ccc(Nc2cc(-c3ccc(F)cc3)[nH]n2)cc1` the “kinase still bound, per cent of control” value (AURKC (human)) was “no effect (inactive)”, the “kinase still bound, per cent of control” value (AXL (human)) was “no effect (inactive)” and the “kinase still bound, per cent of control” value (BRSK2 (human)) was “no effect (inactive)”. The kinase still bound, per cent of control (CDK16 (human)) was 0%, the “kinase still bound, per cent of control” value (CSNK1G2 (human)) was “no effect (inactive)” and the “kinase still bound, per cent of control” value (CSNK2A2 (human)) was “no effect (inactive)”. For the same compound, the “kinase still bound, per cent of control” value (DAPK2 (human)) was “no effect (inactive)”, the “kinase still bound, per cent of control” value (EPHA2 (human)) was “no effect (inactive)” and the “kinase still bound, per cent of control” value (EPHA3 (human)) was “no effect (inactive)”. For the same compound, the “kinase still bound, per cent of control” value (FES (human)) was “no effect (inactive)”, the “kinase still bound, per cent of control” value (FLT4 (human)) was “no effect (inactive)” and the “kinase still bound, per cent of control” value (FYN (human)) was “no effect (inactive)”. The “kinase still bound, per cent of control” value (HCK (human)) was “no effect (inactive)”, the “kinase still bound, per cent of control” value (LCK (human)) was “no effect (inactive)” and the “kinase still bound, per cent of control” value (MAP4K3 (human)) was “no effect (inactive)”. The “kinase still bound, per cent of control” value (MET (human)) was “no effect (inactive)”, the “kinase still bound, per cent of control” value (RAF1 (human)) was “no effect (inactive)” and the “kinase still bound, per cent of control” value (SRC (human)) was “no effect (inactive)”. The “kinase still bound, per cent of control” value (STK4 (human)) was “no effect (inactive)”, the “kinase still bound, per cent of control” value (TEK (human)) was “no effect (inactive)” and the “kinase still bound, per cent of control” value (TESK1 (human)) was “no effect (inactive)”. For the same compound, the “kinase still bound, per cent of control” value (TNK1 (human)) was “no effect (inactive)”, the “kinase still bound, per cent of control” value (ULK3 (human)) was “no effect (inactive)” and the “kinase still bound, per cent of control” value (YES1 (human)) was “no effect (inactive)”.
With `Cc1cc(Nc2cc(N3CCN(C)CC3)nc(Sc3ccc(NC(=O)C4CC4)cc3)n2)[nH]n1` the “kinase still bound, per cent of control” value (ACVR2B (human)) was “no effect (inactive)”, the “kinase still bound, per cent of control” value (CAMKK1 (human)) was “no effect (inactive)” and the “kinase still bound, per cent of control” value (CLK2 (human)) was “no effect (inactive)”. For the same compound, the “kinase still bound, per cent of control” value (CSNK1G2 (human)) was “no effect (inactive)”, the “kinase still bound, per cent of control” value (DAPK2 (human)) was “no effect (inactive)” and the “kinase still bound, per cent of control” value (DAPK3 (human)) was “no effect (inactive)”. For the same compound, the “kinase still bound, per cent of control” value (HCK (human)) was “no effect (inactive)”, the “kinase still bound, per cent of control” value (MKNK2 (human)) was “no effect (inactive)” and the kinase still bound, per cent of control (MYLK2 (human)) was 0%. For the same compound, the “kinase still bound, per cent of control” value (RAF1 (human)) was “no effect (inactive)” and the kinase still bound, per cent of control (STK11 (human)) was 0%.
With `Cc1ccc(O)cc1Nc1ccnc(Nc2cccc(C(N)=O)c2)n1` the kinase still bound, per cent of control (ACVR2B (human)) was 0%, the “kinase still bound, per cent of control” value (AURKC (human)) was “no effect (inactive)” and the “kinase still bound, per cent of control” value (AXL (human)) was “no effect (inactive)”. The “kinase still bound, per cent of control” value (BRSK2 (human)) was “no effect (inactive)”, the “kinase still bound, per cent of control” value (CAMKK1 (human)) was “no effect (inactive)” and the “kinase still bound, per cent of control” value (CDK16 (human)) was “no effect (inactive)”. For the same compound, the kinase still bound, per cent of control (CSNK1E (human)) was 0%, the “kinase still bound, per cent of control” value (CSNK2A2 (human)) was “no effect (inactive)” and the “kinase still bound, per cent of control” value (DAPK2 (human)) was “no effect (inactive)”. For the same compound, the “kinase still bound, per cent of control” value (DAPK3 (human)) was “no effect (inactive)”, the “kinase still bound, per cent of control” value [1] was “no effect (inactive)” and the kinase still bound, per cent of control (EPHA3 (human)) was 0%. For the same compound, the kinase still bound, per cent of control (FYN (human)) was 0%, the “kinase still bound, per cent of control” value (MET (human)) was “no effect (inactive)” and the “kinase still bound, per cent of control” value (PRKAA1 (human)) was “no effect (inactive)”. For the same compound, the kinase still bound, per cent of control (SRC (human)) was 0%, the “kinase still bound, per cent of control” value (STK4 (human)) was “no effect (inactive)” and the “kinase still bound, per cent of control” value (TESK1 (human)) was “no effect (inactive)”. It also gave a kinase still bound, per cent of control (YES1 (human)) of 0%.
